Assays:
[1] = test system: constitutively active ALK-4, ALK-5, and ALK-7; design: dose or concentration left out as unconfirmed; conditions: transfected NIH 3T3 cells; cited from earlier work
TEVG stenosis = assay: Tissue-engineered vascular graft (TEVG) stenosis model; type: in vivo, mice
Description: Scaffolds were constructed from a nonwoven polyglycolic acid (PGA) mesh (Concordia Fibers) and a co-polymer sealant solution of poly-L-lactide and -ε-caprolactone (P(CL/LA)) as previously described (Roh J D, et al. Biomaterials. 29(10):1454 (2008)). For scaffold seeding studies, bone marrow was collected from the femurs of syngeneic C57BL/6 mice. Following purification of the mononuclear cell component using Histopaque-1086 (Sigma) centrifugation, one million mononuclear cells were manually pipetted onto the scaffold. The seeded scaffold was incubated in RPMI 1640 Medium (Gibco) overnight prior to implantation as previously described (Roh J D, et al. Biomaterials. 29(10):1454 (2008)).
sFGFR1-IIIc adenovirus was previously described (Murakami M, et al. J Clin Invest. 118(10):3355 (2008)) at a dose of 5×10^10 viral particles per mouse 1 week prior to TEVG implantation by tail vein injection. Control mice were given equivalent volumes of sterile PBS. Serum level of sFGFR1-IIIc was measured by a Human IgG Subclass Profile kit (Invitrogen).
Mice treated with TGFβRI kinase inhibitor were treated with SB431542 hydrate (Sigma) in DMSO given by intraperitoneal injection twice a day from post-operative day 0 to post-operative day 14 at a dose of 10 mg/kg. Control mice were treated with equivalent volumes of sterile DMSO.
Explanted grafts were pressure fixed in 10% formalin overnight and then embedded in paraffin or glycolmethacrylate using previously published methods (Roh J D, et al. Proc Natl Acad Sci USA. 107(10):4669 (2010)). Sections were stained with H&E or Gomori Trichrome. Graft luminal diameters were measured using ImageJ software. Stenosis was defined as greater than 50% decrease in luminal diameter. Critical stenosis was defined as 80% narrowing of the luminal diameter. Graft occlusion was defined as 100% narrowing of the luminal diameter. For EM studies scaffolds were cut into 0.5 mm thick cross-sections and imaged on a […] scanning electron microscope (Hillsboro) as previously described (Roh J D, et al. Biomaterials. 29(10):1454 (2008)). TGFβ positive cell area was measured using ImageJ software. Two separate sections of each explant were counterstained with hematoxalin and imaged at 400× magnification. The number of nuclei was then counted in five regions of each section and averaged. LacZ/SMA colocalized cells were quantified in the same manner using double immunofluorescent staining imaged under 60× confocal magnification.

ALK-1, -2, -3, and -6 = conditions: cited from earlier work
[2] = Tie2-CreXRosa26 mice, 10 mg/kg twice daily intraperitoneal for 2 weeks, vs DMSO

NC(=O)c1ccc(-c2nc(-c3ccc4c(c3)OCO4)c(-c3ccccn3)[nH]2)cc1 [SB431542, 4-[4-(1,3-Benzodioxol-5-yl)-5-(2-pyridinyl)-1H-imidazol-2-yl]-benzamide]
Phosphorylation of Smad2 by constitutively active ALK-4, ALK-5, and ALK-7 [1]: completely abolished
TEVG luminal diameter (TEVG stenosis; [2]): significantly increases
graft patency (TEVG stenosis; [2]): significantly increases
LacZ-positive smooth muscle cells in occluded grafts (TEVG stenosis; Tie2 lineage-tracing mice, drug treated): significant reduction
Patency (TEVG stenosis; local drug delivery (drug in microparticles, drug in solvent), 2 weeks, unseeded grafts, mouse model): significantly increases
neotissue creation (TEVG stenosis; local drug delivery, unseeded grafts, mouse model): enabled neotissue creation
neotissue creation (CD31 positive endothelial layer lining SMA positive smooth muscle layer) (TEVG stenosis; systemic treatment, 10 mg/kg twice daily intraperitoneal): proper neotissue creation
Effect on ALK-1, -2, -3, and -6 and hence BMP signaling (ALK-1, -2, -3, and -6): without effect

Reference: patent US9782522B2, “Compositions and methods for treating and preventing neointimal stenosis” (Yale University, priority 2011, dated 2017)
